Assay results published in PubChem BioAssay AID330 (DTP/NCI, 2004).
Inconclusive results and toxic doses are left out.

Test system: P388 leukemia ip, CD2F1 mice, survival T/C
Experiment: NCI In Vivo Anticancer Drug Screen. Data for tumor model P388 Leukemia (intraperitoneal) in CD2F1 (CDF1) mice
Details: endpoint: median survival time, higher = longer survival
How it was run: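 Mice carrying the transplanted tumor received test compound or vehicle. Survival was recorded in each group, and the value is the treated-group measurement divided by that of the vehicle-treated control group.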

[1] = dose: 12.5 mg/kg/injection, schedule: Q01DX009 (ip), vehicle: saline
[2] = dose: 25.0 mg/kg/injection, schedule: Q01DX009 (ip), vehicle: saline
[3] = dose: 100.0 mg/kg/injection, schedule: Q01DX009 (ip), vehicle: saline with Tween-80
[4] = dose: 60.0 mg/kg/injection, schedule: Q01DX005 (ip), vehicle: saline with Tween-80
[5] = dose: 120.0 mg/kg/injection, schedule: Q01DX005 (ip), vehicle: saline with Tween-80
[6] = dose: 60.0 mg/kg/injection, schedule: Q01DX005 (ip), vehicle: saline
[7] = dose: 120.0 mg/kg/injection, schedule: Q01DX005 (ip), vehicle: saline
[8] = dose: 240.0 mg/kg/injection, schedule: Q01DX005 (ip), vehicle: saline
[9] = dose: 50.0 mg/kg/injection, schedule: Q01DX009 (ip), vehicle: saline with Tween-80

Cn1cnc2cc(N3CCOCC3)c(N)cc2c1=O
T/C (dose: 100.0 mg/kg/injection, schedule: Q04DX002 (ip), vehicle: Klucel (hydroxypropylcellulose) (HPC)): 106 % of control
T/C (dose: 200.0 mg/kg/injection, schedule: Q04DX002 (ip), vehicle: Klucel (hydroxypropylcellulose) (HPC)): 102 % of control
T/C (dose: 400.0 mg/kg/injection, schedule: Q04DX002 (ip), vehicle: Klucel (hydroxypropylcellulose) (HPC)): 102 % of control

CCCCC1C=CC2C(N1)N2C#N (stereo not given)
T/C (dose: 6.25 mg/kg/injection, schedule: Q01DX009 (ip), vehicle: saline): 102 % of control
T/C [1]: 99 % of control
T/C [2]: 102 % of control
T/C [3]: 86 % of control

CC1=NN(C(=O)c2ccccn2)C(=O)C1N=Nc1ccc(S(=O)(=O)Nc2ncccn2)cc1 (stereo not given)
T/C [4]: 102 % of control
T/C [5]: 105 % of control
T/C (dose: 240.0 mg/kg/injection, schedule: Q01DX005 (ip), vehicle: saline with Tween-80): 94 % of control

NC1=NS(=O)(=O)N=C(N)C1=NNc1ccc([N+](=O)[O-])cc1
T/C (dose: 100.0 mg/kg/injection, schedule: Q01DX001 (ip), vehicle: saline with Tween-80): 108 % of control
T/C (dose: 200.0 mg/kg/injection, schedule: Q01DX001 (ip), vehicle: saline with Tween-80): 92 % of control
T/C (dose: 400.0 mg/kg/injection, schedule: Q01DX001 (ip), vehicle: saline with Tween-80): 96 % of control

COC(=O)C1(C(C)C(=O)c2ccccc2)NC(=S)NC(=O)C1C#N (stereo not given)
T/C [6]: 88 % of control
T/C [7]: 98 % of control
T/C [8]: 100 % of control

O=C(O)CC(CS(=O)CP(=O)(O)O)C(=O)O (stereo not given)
T/C [6]: 93 % of control
T/C [7]: 98 % of control
T/C [8]: 95 % of control

O=C1NC(=O)C2NC(O)=C(O)NC2N1 (stereo not given)
T/C (dose: 12.5 mg/kg/injection, schedule: Q01DX001 (ip), vehicle: saline with Tween-80): 102 % of control
T/C (dose: 25.0 mg/kg/injection, schedule: Q01DX001 (ip), vehicle: saline with Tween-80): 108 % of control

OC(c1ccccc1)C1(c2ccccc2)CCN(Cc2ccccc2)CC1 (stereo not given)
T/C (dose: 50.0 mg/kg/injection, schedule: Q01DX005 (ip), vehicle: saline with Tween-80): 100 % of control
T/C (dose: 100.0 mg/kg/injection, schedule: Q01DX005 (ip), vehicle: saline with Tween-80): 100 % of control
T/C (dose: 200.0 mg/kg/injection, schedule: Q01DX005 (ip), vehicle: saline with Tween-80): 96 % of control

CS(=O)(=O)C(c1nc2n(c1O)/C(=N/C(=O)Nc1ccc(Cl)cc1)N=N2)c1nc2n(c1O)/C(=N/C(=O)Nc1ccc(Cl)cc1)N=N2
T/C [6]: 97 % of control
T/C [7]: 96 % of control
T/C [8]: 95 % of control

Cn1c(=O)[nH]c(N)c(C(=O)CCl)c1=O
T/C [4]: 97 % of control
T/C [5]: 105 % of control

C=C1C(=O)CCC1C(=O)O (stereo not given)
T/C (dose: 178.0 mg/kg/injection, schedule: Q01DX001 (ip), vehicle: saline): 100 % of control
T/C (dose: 266.0 mg/kg/injection, schedule: Q01DX001 (ip), vehicle: saline): 109 % of control
T/C (dose: 400.0 mg/kg/injection, schedule: Q01DX001 (ip), vehicle: saline): 114 % of control
T/C (dose: 600.0 mg/kg/injection, schedule: Q01DX001 (ip), vehicle: saline): 118 % of control
T/C (dose: 900.0 mg/kg/injection, schedule: Q01DX001 (ip), vehicle: saline): 112 % of control

Cc1ccc(NCCNCCO)c2c(=O)c3ccccc3sc12
T/C (dose: 3.75 mg/kg/injection, schedule: Q01DX009 (ip), vehicle: water): 100 % of control
T/C (dose: 7.5 mg/kg/injection, schedule: Q01DX009 (ip), vehicle: distilled water + Tween-80): 113 % of control
T/C (dose: 7.5 mg/kg/injection, schedule: Q01DX009 (ip), vehicle: water): 99 % of control
T/C (dose: 12.5 mg/kg/injection, schedule: Q01DX005 (ip), vehicle: other): 113 % of control
T/C (dose: 15.0 mg/kg/injection, schedule: Q01DX009 (ip), vehicle: distilled water + Tween-80): 120 % of control
T/C (dose: 15.0 mg/kg/injection, schedule: Q01DX009 (ip), vehicle: water): 123 % of control
T/C (dose: 25.0 mg/kg/injection, schedule: Q01DX005 (ip), vehicle: other): 120 % of control
T/C (dose: 50.0 mg/kg/injection, schedule: Q01DX005 (ip), vehicle: Klucel (hydroxypropylcellulose) (HPC)): 119 % of control
T/C (dose: 100.0 mg/kg/injection, schedule: Q01DX005 (ip), vehicle: Klucel (hydroxypropylcellulose) (HPC)): 158 % of control
T/C (dose: 200.0 mg/kg/injection, schedule: Q01DX005 (ip), vehicle: Klucel (hydroxypropylcellulose) (HPC)): 155 % of control

C[N+]1(CI)CC2CC(C1)C[N+](C)(CI)C2 (stereo not given)
T/C [1]: 105 % of control
T/C [2]: 110 % of control
T/C (dose: 50.0 mg/kg/injection, schedule: Q01DX009 (ip), vehicle: saline): 108 % of control

COC(=O)CCC(=O)C(C#N)c1ccc(Cl)c(Cl)c1 (stereo not given)
T/C [4]: 101 % of control
T/C [5]: 101 % of control

CN(O)C(=O)/C=C/c1ccccc1
T/C (dose: 50.0 mg/kg/injection, schedule: Q01DX009 (ip), vehicle: distilled water + Tween-80): 104 % of control
T/C (dose: 100.0 mg/kg/injection, schedule: Q01DX009 (ip), vehicle: distilled water + Tween-80): 104 % of control
T/C (dose: 200.0 mg/kg/injection, schedule: Q01DX009 (ip), vehicle: distilled water + Tween-80): 110 % of control

C=CCN1CCc2c([nH]c3cc(OC)ccc23)C1C (stereo not given)
T/C (dose: 9.0 mg/kg/injection, schedule: Q01DX005 (ip), vehicle: Klucel (hydroxypropylcellulose) (HPC)): 95 % of control
T/C (dose: 18.0 mg/kg/injection, schedule: Q01DX005 (ip), vehicle: Klucel (hydroxypropylcellulose) (HPC)): 94 % of control
T/C (dose: 36.0 mg/kg/injection, schedule: Q01DX005 (ip), vehicle: Klucel (hydroxypropylcellulose) (HPC)): 89 % of control
T/C (dose: 72.0 mg/kg/injection, schedule: Q01DX005 (ip), vehicle: Klucel (hydroxypropylcellulose) (HPC)): 94 % of control
T/C (dose: 144.0 mg/kg/injection, schedule: Q01DX005 (ip), vehicle: Klucel (hydroxypropylcellulose) (HPC)): 94 % of control

CNC(=O)c1ccccc1C(O)c1ccc(C)cc1 (stereo not given)
T/C [9]: 105 % of control
T/C [3]: 99 % of control
T/C (dose: 200.0 mg/kg/injection, schedule: Q01DX009 (ip), vehicle: saline with Tween-80): 99 % of control

CCCCCCCCCCCCC(O)CCC1CCCCN1 (stereo not given)
T/C (dose: 50.0 mg/kg/injection, schedule: Q01DX005 (ip), vehicle: saline): 102 % of control
T/C (dose: 100.0 mg/kg/injection, schedule: Q01DX005 (ip), vehicle: saline): 105 % of control

[Cl][Pt][Cl].[NH-]C(CO)C(=O)O (stereo not given)
T/C (dose: 6.25 mg/kg/injection, schedule: Q01DX005 (ip), vehicle: water): 119 % of control
T/C (dose: 12.5 mg/kg/injection, schedule: Q01DX005 (ip), vehicle: water): 113 % of control
T/C (dose: 25.0 mg/kg/injection, schedule: Q01DX005 (ip), vehicle: water): 122 % of control
T/C (dose: 50.0 mg/kg/injection, schedule: Q01DX005 (ip), vehicle: water): 153 % of control

CSc1nc(N)c(C(=O)Nc2ccc3ccccc3c2)s1
T/C (dose: 50.0 mg/kg/injection, schedule: Q01DX009 (ip), vehicle: Klucel (hydroxypropylcellulose) (HPC)): 107 % of control
T/C (dose: 100.0 mg/kg/injection, schedule: Q01DX009 (ip), vehicle: Klucel (hydroxypropylcellulose) (HPC)): 98 % of control
T/C (dose: 200.0 mg/kg/injection, schedule: Q01DX009 (ip), vehicle: Klucel (hydroxypropylcellulose) (HPC)): 99 % of control

O=C(Cl)CCc1cc(Cl)no1
T/C (dose: 3.13 mg/kg/injection, schedule: Q04DX003 (ip), vehicle: other): 109 % of control
T/C (dose: 6.25 mg/kg/injection, schedule: Q04DX003 (ip), vehicle: other): 97 % of control
T/C (dose: 12.5 mg/kg/injection, schedule: Q04DX003 (ip), vehicle: other): 100 % of control
T/C (dose: 25.0 mg/kg/injection, schedule: Q04DX003 (ip), vehicle: other): 103 % of control
T/C (dose: 50.0 mg/kg/injection, schedule: Q04DX003 (ip), vehicle: other): 107 % of control
T/C (dose: 100.0 mg/kg/injection, schedule: Q04DX003 (ip), vehicle: other): 107 % of control
T/C (dose: 200.0 mg/kg/injection, schedule: Q04DX003 (ip), vehicle: other): 100 % of control

CC[As](CCO)SC1CC(OC(=O)c2ccccc2)C(OC(=O)c2ccccc2)C(COC(=O)c2ccccc2)O1 (stereo not given)
T/C (dose: 25.0 mg/kg/injection, schedule: Q01DX009 (ip), vehicle: saline with Tween-80): 110 % of control
T/C (dose: 50.0 mg/kg/injection, schedule: Q01DX009 (ip), vehicle: saline + alcohol): 124 % of control
T/C [9]: 96 % of control
T/C [3]: 110 % of control
